Data published in patent US20260284009A1, “COMPOUNDS FOR NOS-RELATED CANCERS AND METHODS OF USE” (YISSUM RESEARCH DEVELOPMENT COMPANY OF THE HEBREW …, priority 2023, published 2026).

Key:
[1] = test system: U87-MG cells; experiment: Western blot of U87-MG cells (3-Ntyr, CD70, iNOS, nNOS); type: cell-based, human; details: vs control and vehicle
Method: Human glioblastoma U87-MG cells were obtained from the American Type Culture Collection (ATCC) and maintained in Dulbecco's modified Eagle's Medium (DMEM) and Ham's F-12 (1:1) supplemented with 10% fetal bovine serum, 2 mM L-glutamine, and 100 U/ml penicillin-G/[…] streptomycin in the humidified atmosphere (37° C., 5% CO2). Cells were plated onto 25 cm^2 and 75 cm^2 at a density of […] respectively for Western blotting (WB) and 1×10^5 for immunofluorescence. The U87-MG cells were treated with 100 μM 7-nitroindazole (7-NI) for 24 hr. This concentration was confirmed in the dose-response experiment (FIG. 7) using an MTT viability assay.
Cells were lysed in ice-cold RIPA buffer containing 50 mM Tris-HCl, 1% Nonidet P-40, 0.25% sodium deoxycholate, 150 mM NaCl, protease-, and phosphatase inhibitor cocktails, pH 7.4. After sonication, the lysates were centrifuged at 17,000 g for 30 min at 4° C., and the supernatant was collected. The protein concentrations were determined with the BCA protein assay. Proteins were resolved by SDS-PAGE, transferred to a PVDF membrane, and probed with the following antibodies: anti-CD70 (rabbit, diluted 1:1000), and anti-3-Nitrotyrosine (rabbit, diluted 1:5000) from Abcam. All primary antibodies, except anti-3-Nitrotyrosine, were purchased from Cell Signaling Technology. The blots were then visualized using an enhanced chemiluminescence (ECL) system.

[2] = test system: U87-MG-xenografted mice; experiment: Survival of U87-MG-xenografted mice; type: in vivo; details: 80 or 120 mg/kg 7-NI daily, vs saline vehicle
[3] = test system: SH-SY5Y cells; experiment: NADPH-diaphorase staining of SH-SY5Y cells; type: cell-based, human; details: 7-NI treated vs untreated group
Method: Human neuroblastoma (“NB”) SH-SY5Y cells were obtained from the American Type Culture Collection (ATCC) and maintained in Dulbecco's modified Eagle's medium (DMEM) and Ham's F-12 (1:1) supplemented with 10% fetal bovine serum, 2 mM L-glutamine, and 100 U/ml penicillin-G/[…] streptomycin in the humidified atmosphere (37° C., 5% CO2). Cells were plated onto 25 cm^2 and 75 cm^2 at a density of […] respectively for Western blotting (WB) and 1×10^5 for immunofluorescence. The SH-SY5Y cells were treated with 100 μM 7-nitroindazole (7-NI) for 24 hr. This concentration was confirmed in the dose-response experiment (FIG. 1) using an MTT viability assay.
NADPH diaphorase staining were done using NBT as a chromogen and […] as a reductant to detect cells with NOS activity. Cells were cultured and treated as described previously in the immunofluorescence section. Then cells were fixed with 4% PFA for 30 min at room temperature in dark. After fixation, the cells were washed 2 times with PBS and then incubated in 0.2% Triton X-100 (in phosphate buffer) for 10 min. The cells were then incubated in […] NBT-NADPH solution for 2 h at 37C. The cells were washed twice with PBS and permanently mounted with DPX. Images were analyzed with a Nikon confocal TL microscope. […]

[4] = test system: SH-SY5Y cells; experiment: Xenograft neuroblastoma model, SH-SY5Y cells in NSG mice; type: in vivo; details: NSG male mice, 80 mg/kg 7-NI intraperitoneally three times per week, one month, vs control
Method: A xenograft neuroblastoma model was generated by injecting 4.0×10^6 SH-SY5Y cells (in a 50:50 mixture of PBS and matrigel basement membrane matrix) into the subcutaneous tissue in the flank of NOD SCID Gamma (NSG) male mice. Mice were 6-8 weeks old at time of injections. The mice were examined for 1 month.
Two treatment groups of mice were used (n=8), wherein one group was administered control, and the second group was administered 80 mg/kg of 7-NI administered intraperitoneally three times per week. Treatment started after five days from the injection with SH-SY5Y cells. After one month, all mice were euthanized, and tumors were harvested for ex vivo analysis and histology. Tumor volume was measured using calipers and was calculated as (length^2*width)/2

[5] = test system: U87-MG cells; experiment: Xenograft glioblastoma model, U87-MG cells in NSG mice: survival experiment; type: in vivo; details: 80 mg/kg or 120 mg/kg 7-NI intraperitoneally daily, vehicle-treated mice 35 days
Method: A xenograft glioblastoma model was generated by injecting 1.0×10^6 U87-MG cells (in PBS) into the subcutaneous tissue in the flank of NOD SCID Gamma (NSG) male (n=40) and female mice (n=5). Mice were 6-7 weeks old at time of injections. Mice were divided into groups and treatment was started when tumor volume reached 50 mm^3.
A survival experiment was performed in the mice, the treatment groups were saline (“Vehicle”) (n=10), 80 mg/kg 7-NI (n=10), and 120 mg/kg 7-NI (n=8). Treatments were administered intraperitoneally daily.

[6] = test system: SH-SY5Y cells; experiment: Clonogenic survival of SH-SY5Y cells; type: cell-based, human; details: 100 μM 7-NI or 20 nM siRNA (SEQ ID NO: 4), n=4
Method: In FIGS. 3A-3B, for quantitative analysis data, all individual data series are presented as biological replicates (n=4) for all groups. Data are presented as mean±SEM. Statistical significance was determined using a One-way ANOVA followed by Fisher's LSD multiple comparison post hoc test. *P<0.05, **P<0.01, and ns=not significant.
FIG. 3A: Representative well images of clonogenic growth following administration of the control (“SH-SY5Y”), 0.1% DMSO (“SH-SY5Y+NC”), 100 μM 7-NI (“SH-SY5Y+7-NI”), or 20 nM siRNA (SEQ ID NO: 4) (“SH-SY5Y+si-nNOS”).
FIG. 3B: Quantitative analysis of clonogenic survival for the experiments of FIG. 3A.

[7] = test system: nNOS; experiment: nNOS expression level in U87-MG cells; type: cell-based, human; details: both the lower dose and higher dose, compared to the control treatment; not statistically significant (FIG. 15)
[8] = test system: U87-MG-xenografted mice; experiment: Tumor growth in U87-MG-xenografted mice; type: in vivo; details: 10 mg/kg, compared to the vehicle (FIGS. 16-17)
Method: In a particular example, in vitro and in vivo experiments were performed using U87-MG cells and U87-MG-xenografted mice, respectively, as a glioblastoma model.

[9] = 7-NI, not statistically significantly

| Compound | 3-Ntyr levels ([1]; 100 μM 7-NI, 24 hr) | expression level of iNOS ([1]; 7-NI) | expression level of CD70 [1, 9] | expression level of nNOS [1, 9] | survival [2] | NADPH diaphorase staining [3] | average tumor size [4] | median survival [5] | clonogenic survival [6] | expression level of nNOS [7] | average tumor size [8] |
| --- | --- | --- | --- | --- | --- | --- | --- | --- | --- | --- | --- |
| O=[N+]([O-])c1cccc2cn[nH]c12 [7-NI, 7-nitroindazole] | significantly reduced | unchanged | slightly decreased | slightly decreased | increased survival | decreased | significantly smaller | ~ 65 days | significant decrease |  |  |
| CC(=N)NCCCC[C@H](N)C(=O)O [L-NIL, N^6-(1-iminoethyl)-L-lysine] |  |  |  |  |  |  |  |  |  | reduced | significantly smaller |
